Laboratory results taken from BindingDB's records for doi:10.1016/j.bmcl.2007.04.053 (Merck Research Laboratories, 2007).

experiment: Inhibition of chemotaxis in human MCP1 monocytes

Row | IC50 | Structure (SMILES)
1 | 0.15 nM | CC(C)[C@]1(C(=O)NCc2cc(F)cc(C(F)(F)F)c2)CC[C@@H](N2CC[C@]3(C=Cc4ccccc43)[C@@H](C)C2)C1 [(1S,3R)-N-{[3-fluoro-5-(trifluoromethyl)phenyl]methyl}-3-[(1S,5'R)-5'-methylspiro[indene-1,4'-piperidine]-1'-yl]-1-(propan-2-yl)cyclopentane-1-carboxamide]
2 | 0.32 nM | CC(C)C[C@]1(C(=O)NCc2cc(F)cc(C(F)(F)F)c2)CC[C@@H](N2CC[C@]3(C=Cc4ccccc43)[C@@H](C)C2)C1 [(1R,3R)-N-{[3-fluoro-5-(trifluoromethyl)phenyl]methyl}-1-(2-methylpropyl)-3-[(1S,5'R)-5'-methylspiro[indene-1,4'-piperidine]-1'-yl]cyclopentane-1-carboxamide]
3 | 0.23 nM | C[C@H]1CN([C@@H]2CC[C@@](C(=O)NCc3cc(F)cc(C(F)(F)F)c3)(C3CC3)C2)CC[C@]12C=Cc1ccccc12 [(1S,3R)-1-cyclopropyl-N-{[3-fluoro-5-(trifluoromethyl)phenyl]methyl}-3-[(1S,5'R)-5'-methylspiro[indene-1,4'-piperidine]-1'-yl]cyclopentane-1-carboxamide]
